Data: patent US20260315434A1, “USE OF GUAIACOL SESQUITERPENE LACTONE DERIVATIVES” (NANJING UNIVERSITY OF CHINESE MEDICINE, priority 2023, published 2026)

Legend:
[1] = tested on: serum creatinine and blood urea nitrogen; test: Diabetic nephropathy (STZ/HFD), serum creatinine and BUN; assay type: in vivo, C57/BL6J mice; settings: 8 weeks
Protocol: Experimental animals: C57/BL6J mice, male, 12 weeks old, purchased from GemPharmatech LLC. Production license number: SCXK(Su)2023-0009. […] Animals were acclimated for 7 days before use in experiments.
Administer streptozotocin (STZ, 50 mg/kg) via intraperitoneal injection for 5 consecutive days. After 72 hours, select mice with fasting blood glucose levels exceeding 16.7 mmol/L as model mice. […] Model mice were fed a high-fat diet (HFD) providing 60% of energy from fat for 8 weeks. After 8 weeks, gavage administration commenced.
Specimen Collection: One hour after the last drug administration, enucleate the eyeball to collect blood. Allow blood to stand at room temperature for 2 hours, then centrifuge at 3000 rpm for 20 minutes. Aspirate the serum, aliquot it, and store at −70° C. for future use. After blood collection, euthanize the mice by cervical dislocation. Open the abdominal cavity, remove the kidneys, and dissect away the perirenal fat and capsule. Store the tissue at −70° C. for future use.
Serum Creatinine (Scr) and Blood Urea Nitrogen (BUN) Assay: For each sample, 10 μL of serum was used for creatinine and urea level detection. Samples were added sequentially strictly following the kit instructions. After incubation at 37° C., absorbance values were measured using an enzyme-linked immunosorbent assay (ELISA) reader. The concentration levels of each indicator were calculated based on the standard curve.

[2] = tested on: IgE and inflammatory markers of AD mice; test: MC903-induced atopic dermatitis, oral administration: serum IgE and ear mRNA of inflammatory markers; assay type: in vivo, mouse; set-up: scale not given here
Protocol: Except for the Normal group, all other groups underwent AD modeling: 20 μL of MC903 solution (also known as calcipotriol, purchased from Shanghai Yuanye Biotechnology Co., Ltd., used for inducing atopic models) was applied to each mouse's ears once daily for 14 consecutive days to induce the atopic dermatitis model. […] Measure ear thickness changes every 2 days using an electronic caliper before modeling and after treatment initiation.

[3] = Safety evaluation, mouse body weight (30 days oral); assay type: in vivo, C57BL/6 mice; set-up: Mouse body weight: unit not given here; settings: for Mouse body weight: oral gavage once daily
Source text: (§1) The Normal group received an equal volume of solvent (saline).

[4] = Safety evaluation, mouse activity status (30 days oral); assay type: in vivo, C57BL/6 mice; settings: 500, 1000 mg/kg oral
Source text: as §1

[5] = Safety evaluation, mouse survival rate (30 days oral); assay type: in vivo, C57BL/6 mice; settings: for survival at 720 h: mouse, in vivo, female, oral
Source text: as §1

MDSCs = test: Inhibition of MDSC chemotaxis (Transwell, tumor-conditioned medium); assay type: cell-based, mouse; settings: Mus musculus, read-out: Suppression Rate (MDSC chemotaxis)
Protocol: Hepa1-6 mouse hepatocellular carcinoma cells were uniformly seeded into 6-well plates. After cells reached confluence, supernatant was aspirated, and 1-1.5 mL fresh medium was added to each well. Following 24 h culture, supernatant was collected, centrifuged at 1600 rpm for 5 min, aspirated, and filtered through a 0.22 μm membrane to obtain tumor-conditioned medium for subsequent use. […] Under sterile conditions, remove the tibia, cut both ends of the bone, and aspirate the bone marrow into a 1 mL syringe. Repeat flushing into a 15 mL centrifuge tube. Centrifuge at 1600 rpm for 5 min to collect bone marrow cells. Wash twice with 1×PBS. […] Count cells, adjust density to 1×10^6 cells/mL, and uniformly seed into 24-well plates at 300 μL per well. […] Centrifuge at 1600 rpm for 5 min, remove supernatant, resuspend cells in 300 μL fresh medium, and place into Transwell chambers. […] Co-culture for 24 h.

[6] = 8 h; cited from earlier work
heart failure = settings: human, in vivo; cited from earlier work

CC1=C2CC[C@@](C)(OC(=O)N3CCCC3)[C@@H]2[C@H]2OC(=O)[C@@H](CN3CCCC3)[C@@H]2CC1 [Compound 103]
BUN ([1]; 1 mg/kg gavage): 54.34 ± 10.67 | Scr (serum creatinine) ([1]; 1 mg/kg gavage): 23.48 ± 6.73 | BUN ([1]; 10 mg/kg gavage): 38.10 ± 2.88 | Scr (serum creatinine) ([1]; 10 mg/kg gavage): 14.90 ± 8.06

CN(C)C[C@@H]1C(=O)O[C@H]2[C@H]1CC[C@@]1(C)C[C@]13CC[C@@](C)(O)[C@H]23 [Compound 20]
I14 mRNA expression, ear ([2]; 0.1 mg/kg oral): 2.77 ± 0.16 | I113 mRNA expression, ear ([2]; 0.1 mg/kg oral): 2.04 ± 0.20 | I131 mRNA expression, ear ([2]; 0.1 mg/kg oral): 2.64 ± 0.22 | TSLP mRNA expression, ear ([2]; 0.1 mg/kg oral): 3.38 ± 0.51 | Tnf mRNA expression, ear ([2]; 0.1 mg/kg oral): 4.04 ± 0.50 | I14 mRNA expression, ear ([2]; 1 mg/kg oral): 2.65 ± 0.22 | I113 mRNA expression, ear ([2]; 1 mg/kg oral): 1.82 ± 0.21 | TSLP mRNA expression, ear ([2]; 1 mg/kg oral): 2.36 ± 0.32 | Tnf mRNA expression, ear ([2]; 1 mg/kg oral): 2.63 ± 0.55 | I14 mRNA expression, ear ([2]; 10 mg/kg oral): 2.09 ± 0.26 | I113 mRNA expression, ear ([2]; 10 mg/kg oral): 1.66 ± 0.30 | I131 mRNA expression, ear ([2]; 10 mg/kg oral): 1.68 ± 0.13 | TSLP mRNA expression, ear ([2]; 10 mg/kg oral): 1.33 ± 0.13 | Tnf mRNA expression, ear ([2]; 10 mg/kg oral): 1.22 ± 0.18 | body weight ([3]; 500, 1000 mg/kg oral, 30 days, P>0.05): no significant effect | Mouse body weight ([3]; female, 500 mg/kg, day 1): 100.00 ± 0.00 | Mouse body weight ([3]; female, 500 mg/kg, day 5): 100.41 ± 0.43 | Mouse body weight ([3]; female, 500 mg/kg, day 10): 99.01 ± 1.34 | Mouse body weight ([3]; female, 500 mg/kg, day 15): 100.03 ± 0.95 | Mouse body weight ([3]; female, 500 mg/kg, day 20): 100.52 ± 0.74 | Mouse body weight ([3]; female, 500 mg/kg, day 25): 99.81 ± 1.72 | Mouse body weight ([3]; female, 500 mg/kg, day 30): 99.79 ± 2.55 | Mouse body weight ([3]; female, 1000 mg/kg, day 1): 100.00±0.00 | Mouse body weight ([3]; female, 1000 mg/kg, day 5): 101.96 ± 0.55 | Mouse body weight ([3]; female, 1000 mg/kg, day 10): 101.80 ± 2.02 | Mouse body weight ([3]; female, 1000 mg/kg, day 15): 99.77 ± 2.60 | Mouse body weight ([3]; female, 1000 mg/kg, day 20): 101.04 ± 2.13 | Mouse body weight ([3]; female, 1000 mg/kg, day 25): 99.06 ± 3.56 | Mouse body weight ([3]; female, 1000 mg/kg, day 30): 100.67 ± 0.91 | Mouse body weight ([3]; male, 500 mg/kg, day 1): 100.00 ± 0.00 | Mouse body weight ([3]; male, 500 mg/kg, day 5): 100.31 ± 0.89 | Mouse body weight ([3]; male, 500 mg/kg, day 10): 101.51 ± 4.00 | Mouse body weight ([3]; male, 500 mg/kg, day 15): 99.27 ± 2.11 | Mouse body weight ([3]; male, 500 mg/kg, day 20): 101.29 ± 0.40 | Mouse body weight ([3]; male, 500 mg/kg, day 25): 98.93 ± 0.60 | Mouse body weight ([3]; male, 500 mg/kg, day 30): 100.10 ± 1.08 | Mouse body weight ([3]; male, 1000 mg/kg, day 1): 100.00 ± 0.00 | Mouse body weight ([3]; male, 1000 mg/kg, day 5): 101.48 ± 1.30 | Mouse body weight ([3]; male, 1000 mg/kg, day 10): 101.22 ± 0.84 | Mouse body weight ([3]; male, 1000 mg/kg, day 15): 100.47 ± 1.28 | Mouse body weight ([3]; male, 1000 mg/kg, day 20): 100.15 ± 2.76 | Mouse body weight ([3]; male, 1000 mg/kg, day 25): 98.35 ± 1.14 | Mouse body weight ([3]; male, 1000 mg/kg, day 30): 100.71 ± 0.53 | activity status after each administration [4]: relatively reduced activity and lethargy | time to recovery to normal activity [4]: 1 to 2 h | coat luster, behavioral activity, or mental state vs. Normal group ([4]; 30 days): no significant differences | survival rate ([5]; 500 and 1000 mg/kg oral): no significant effect | survival at 720 h ([5]; 500 mg/kg): 100% | survival at 720 h ([5]; 1000 mg/kg): 100%

C=C1C(=O)O[C@@H]2[C@H]3C(C)=CC[C@@]34O[C@@]4(C)CC[C@@H]12 [Arg, Arglabin, reference compound]
inhibition at 1 µM (MDSCs): 42.5% | inhibition at 10 µM (MDSCs): 73.2% | degradation rate in gastric fluid [6]: 50% | cardiac inflammation (heart failure): inhibited
